Read-outs that look alike come from different tables or passages of the source.
Columns and labels:
BRD4(BD1) [1] = molecular target: T1, BRD4(BD1) (Homo sapiens, UniProt O60885); experiment: HTRF assay, disruption of bromodomain/histone peptide interaction; format: binding; conditions: for LE (Ligand Efficiency): LE = 1.4(−log(IC50)/N), BRD4(BD1)
T1 construct: a BRD4(BD1) synthetic gene that includes a TEV cleavage site was purchased from LifeTechnology; made in house
Method: (§1) HTRF assays were performed in white 384 Well Small Volume™ HiBase Polystyrene Microplates (Greiner) with a total working volume of 20 μL. Compounds were dispensed, with 200 nL per well (1% final DMSO), from a concentration stock of 1 mM in 100% DMSO and with serial DMSO dilutions, using a Mosquito Crystal pipetting robot platform (TTP labtech). The IC50 measurements were performed in triplicates (Table 2 and 3). All HTRF reagents were purchased from CisBio Bioassays and reconstituted according to the supplier protocols. For each assay 14.7 μL of mix 1 (protein+peptide) is added in the assay wells, containing previously dispensed inhibitors, according to the final concentration and buffer described in Table 4, using a Biomek NX MC pipetting robot (Beckman). Then, 5.1 μL of mix 2 (donnor+acceptor) is added. HTRF signals were measured, after a final incubation (overnight at room temperature), using a PHERAstar FS (BMG Labtech) with an excitation filter at 337 nm and fluorescence wavelength measurement at 620 and 665 nm, an integration delay of 60 μs and an integration time of 500 μs. Results were analyzed with a two-wavelengths signal ratio: [intensity (665 nm)/intensity (620 nm)]*10^4. Percentage of inhibition was calculated using the following equation: % inhibition=[(compound signal)−(min signal)]/[(max signal)−(min signal)]*100, where ‘max signal’ is the signal ratio with the compound vehicle alone (DMSO) and ‘min signal’ the signal ratio without peptide.
(§2) For Isothermal Titration Calorimetry (ITC) and crystallogenesis, BRD4(BD1) was produced and purified using a histidine tag affinity chromatography as described by Filipakopoulos et al.9 For these experiments, a pNIC28-BSA4 expression vector containing BRD4(BD1) and a Tobacco Etch Virus (TEV) protease cleavage site have kindly been provided by Stefan Knapp laboratory from the SGC at the University of Oxford. After size exclusion chromatography, the fractions presenting pure BRD4(BD1) after TEV cleavage of the histidine tag were pooled and concentrated to 25 mg/mL for crystallogenesis. For ITC assays, the protein was concentrated up to at 6 mg/mL and the DTT was removed using a buffer exchange column (PD10 from GE healthcare) equilibrated with 10 mM HEPES pH=7.5, 150 mM NaCl. For Homogeneous Time Resolved Fluorimetry (HTRF) experiments, a BRD4(BD1) synthetic gene that includes a TEV cleavage site was purchased from LifeTechnology in a pDONR transport vector before cloning into a pDESTTM15 expression vector for GST affinity purification. Protein production and purification was carried out using similar protocols and buffers as used for the His-BRD4(BD1) system. Purification was carried on GST affinity resin (Thermo Scientific) and reduced glutathione was used for protein release. GST-BRD4(BD1) was further purified by size exclusion chromatography on a Superdex 16/60 Hiload column (GE Healthcare) using 20 mM TRIS pH=8.0, 150 mM NaCl Buffer.

BRD3(BD1) = molecular target: T2, BRD3(BD1) (Homo sapiens, UniProt Q15059); experiment: HTRF bromodomain selectivity profile; format: binding; conditions: Table 3 selectivity profile
T2 construct: purchased BPS Bioscience
T2 sequence (Q15059 34-140 limits assumed): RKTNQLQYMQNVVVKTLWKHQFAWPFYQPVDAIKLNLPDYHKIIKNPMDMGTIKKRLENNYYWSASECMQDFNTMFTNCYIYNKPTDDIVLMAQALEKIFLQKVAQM
Method: as §1, with “Compounds” for “HTRF assays were performed in white 384 Well Small Volume™ HiBase Polystyrene Microplates (Greiner) with a total working volume of 20 μL. Compounds”, “The IC50 measurements were performed in triplicates (Table 2 and 3).” left out, “[intensity (665 nm)/intensity (620 nm)]*10^4.” left out, “peptide. For IC50 measurements, values were normalized and fitted with Prism (GraphPad software) using the following equation: […] Selectivity profiles of bromodomain inhibitors were performed as described in HTRF screen section. […] HTRF detection reagents (EPIgeneous™ Binding Domain kits) were purchased from Cisbio Bioassays and used according to supplier's protocol. GST tagged bromodomain proteins were purchased from BPS Bioscience and histone peptide from Anaspec. [table]” for “peptide.”

BRD3(BD2) = molecular target: T3, BRD3(BD2) (Homo sapiens, UniProt Q15059); experiment: HTRF bromodomain selectivity profile; format: binding; conditions: Table 3 selectivity profile
T3 construct: purchased BPS Bioscience
T3 sequence (Q15059 306-415 limits assumed): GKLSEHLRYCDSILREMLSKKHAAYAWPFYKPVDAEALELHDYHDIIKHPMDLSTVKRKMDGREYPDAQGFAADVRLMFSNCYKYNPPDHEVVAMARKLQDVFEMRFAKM
Method: as §1, with “Compounds” for “HTRF assays were performed in white 384 Well Small Volume™ HiBase Polystyrene Microplates (Greiner) with a total working volume of 20 μL. Compounds”, “The IC50 measurements were performed in triplicates (Table 2 and 3).” left out, “[intensity (665 nm)/intensity (620 nm)]*10^4.” left out, “peptide. For IC50 measurements, values were normalized and fitted with Prism (GraphPad software) using the following equation: […] Selectivity profiles of bromodomain inhibitors were performed as described in HTRF screen section. […] HTRF detection reagents (EPIgeneous™ Binding Domain kits) were purchased from Cisbio Bioassays and used according to supplier's protocol. GST tagged bromodomain proteins were purchased from BPS Bioscience and histone peptide from Anaspec. [table]” for “peptide.”

BRD2(BD1) = molecular target: T4, BRD2(BD1) (Homo sapiens, UniProt P25440); experiment: HTRF bromodomain selectivity profile; format: binding; conditions: Table 3 selectivity profile
T4 construct: purchased BPS Bioscience
T4 sequence (P25440 74-180 limits assumed): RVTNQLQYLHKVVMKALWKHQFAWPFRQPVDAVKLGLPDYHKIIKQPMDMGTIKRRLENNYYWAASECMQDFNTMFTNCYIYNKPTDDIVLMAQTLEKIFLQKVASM
Method: as §1
(§3) Selectivity profiles of bromodomain inhibitors were performed as described in HTRF screen section. […] HTRF detection reagents (EPIgeneous™ Binding Domain kits) were purchased from Cisbio Bioassays and used according to supplier's protocol. GST tagged bromodomain proteins were purchased from BPS Bioscience and histone peptide from Anaspec.

BRD2(BD2) = molecular target: T5, BRD2(BD2) (Homo sapiens, UniProt P25440); experiment: HTRF bromodomain selectivity profile; format: binding; conditions: Table 3 selectivity profile
T5 construct: purchased BPS Bioscience
T5 sequence (P25440 344-453 limits assumed): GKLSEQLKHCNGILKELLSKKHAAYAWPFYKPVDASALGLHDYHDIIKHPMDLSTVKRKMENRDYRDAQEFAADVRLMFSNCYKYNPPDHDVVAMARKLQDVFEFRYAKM
Method: as §1, §3

BRD4(BD2) = molecular target: T6, BRD4(BD2) (Homo sapiens, UniProt O60885); experiment: HTRF bromodomain selectivity profile; format: binding; conditions: Table 3 selectivity profile
T6 construct: purchased BPS Bioscience
Method: as §1, §3

BRDT(BD1) = molecular target: T7, BRDT(BD1) (Homo sapiens, UniProt Q58F21); experiment: HTRF bromodomain selectivity profile; format: binding; conditions: Table 3 selectivity profile
T7 construct: purchased BPS Bioscience
Method: as §1, §3

ATAD2 = molecular target: T8, ATAD2 (Homo sapiens, UniProt Q6PL18); experiment: HTRF bromodomain selectivity profile, non-BET control; format: binding; conditions: non-BET family member bromodomain control
T8 construct: GST tagged bromodomain proteins were purchased from BPS Bioscience; purchased BPS Bioscience
T8 sequence (Q6PL18 980-1092 limits assumed): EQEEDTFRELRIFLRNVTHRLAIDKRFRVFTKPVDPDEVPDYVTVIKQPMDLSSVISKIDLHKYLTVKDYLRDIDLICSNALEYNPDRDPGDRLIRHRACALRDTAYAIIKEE
Method: as §1, §3

BET bromodomains = experiment: Selectivity profile across BET bromodomains (HTRF); format: binding; conditions: in words
Method: as §3

BRD4(BD1) [2] = molecular target: T1, BRD4(BD1); experiment: Isothermal Titration Calorimetry; format: binding
Source text: as §2
ITC was used to evaluate the thermodynamics parameters of the binding between BRD4(BD1) and the selected compounds, using ITC conditions previously described by Filippakopoulos et al.8 Purified BRD4(BD1) was extensively dialyzed in the ITC buffer containing 10 mM Hepes pH=7.5 and 150 mM NaCl. Compounds were diluted directly in the last protein dialysate prior to experiments. Titrations were carried out on a MicroCal ITC200 microcalorimeter (GE Healthcare, Piscataway, N.J.). Each experiment was designed using a titrant concentration (protein in the syringe) set 10 to 15 times the analyte concentration (compound in the cell generally between 10 and 35 μM) and using 13 injections at 35° C. A first small injection (generally 0.2 μL) was included in the titration protocol in order to remove air bubbles trapped in the syringe prior titration. Raw data were scaled after setting the zero to the titration saturation heat value. Integrated raw ITC data were fitted to a one site non-linear least squares fit model using the MicroCal Origin plugin as implemented in Origin 7 (Origin Lab). Finally, ΔG and TΔS values were calculated from the fitted ΔH and KA values using the equations ΔG=−R.T. ln KA and ΔG=ΔH−TΔS.

acute leukemia = conditions: patients, phase I acute leukemia study; cited from earlier work
[3] = system: BD2 domain of BRD2 and BRD3; conditions: cited from earlier work
[4] = HTRF, mean ± SD of three experiments, Table 2, read-out: IC50 μM, effect on BRD4(BD1) activity
[5] = HTRF, Table 1′, TABLE 2, read-out: BRD4(BD1) IC50
[6] = Table 3 selectivity profile, mean ± SD of three experiments, read-out: IC50 (μM) BRD4(BD1)

Compound | IC50 (BRD4(BD1) [1]; [4]) | IC50 (BRD3(BD1)) | IC50 (BRD3(BD2)) | IC50 (BRD2(BD1)) | IC50 (BRD2(BD2)) | IC50 (BRD4(BD2)) | IC50 (BRDT(BD1)) | IC50 (BRD4(BD1) [1]; [5]) | LE (Ligand Efficiency) (BRD4(BD1) [1]) | IC50 (BRD4(BD1) [1]; [6]) | IC50 (ATAD2) | selectivity profile among BET bromodomains (BET bromodomains) | fold increased potency (7a vs 6a) (BRD4(BD1) [1]; HTRF IC50 BRD4(BD1)) | enthalpy change (BRD4(BD1) [2]; ITC, BRD4(BD1)) | Kd (BRD4(BD1) [2]; Isothermal Titration Calorimetry) | fold decrease in potency as compared to 7a (BRD4(BD1) [1]; HTRF IC50 BRD4(BD1)) | clinical response (acute leukemia) | bromodomain binding preference [3]
Cn1cnc2c1c(=O)[nH]c(=O)n2Cc1ccc(Cl)cc1 [Compound 4b] | 9 µM | 14 µM | 4 µM | > 100 µM | 7 µM | 5 µM | 27 µM |  |  |  |  |  |  |  |  |  |  | 
CCCCn1c(=O)[nH]c(=O)c2c1ncn2CC [Compound 6a, 3-Butyl-7-ethylxanthine] | 13 µM | 4.8 ± 0.3 µM | 5.8 ± 0.2 µM | 18.8 ± 0.7 µM | 6.6 ± 0.3 µM | 8.1 ± 0.3 µM | 7.9 ± 0.4 µM | 13 ± 0.3 µM | 0.40 | 13 ± 0.3 µM | > 100 µM | pan-BET inhibition profile |  |  |  |  |  | 
CCn1cnc2c1c(=O)[nH]c(=O)n2Cc1ccc(Cl)cc1 [Compound 7a] | 2.6 µM | 1.8 ± 1.1 µM | 1.8 ± 0.2 µM | 4.7 ± 0.1 µM | 1.6 ± 0.2 µM | 1.9 ± 0.1 µM | 2.3 ± 0.2 µM | 2.6 µM | 0.37 | 2.6 ± 0.1 µM | > 100 µM | pan-BET inhibition profile | 2 fold | -6.3 kcal/mol | 1800 nM |  |  | 
CCn1c(CSc2n[nH]c(N)n2)nc2c1c(=O)[nH]c(=O)n2Cc1ccc(Cl)cc1 [Compound 22a, 8-(5-Amino-1H-[1,2,4]triazol-3-ylsulfanylmethyl)-3-(4-chlorobenzyl)-7-ethyl-3,7-dihydro-purine-2,6-dione] | 26.4 µM | 31.7 ± 1.1 µM |  | 30 ± 0.9 µM |  |  |  | 26.4 µM | 0.17 | 26.4 ± 0.7 µM |  | shift of selectivity towards BET-BD1 domains |  |  |  | 10 fold |  | 
CCn1c(CSc2nc3nc(C)cc(C)n3n2)nc2c1c(=O)[nH]c(=O)n2Cc1ccc(Cl)cc1 [Compound 25a] | 12.6 µM | 40.7 ± 2.2 µM | 23.9 ± 1.4 µM | 30.1 ± 1.3 µM | > 100 µM | > 100 µM | 65.3 ± 8.1 µM |  |  |  | > 100 µM |  |  |  |  |  |  | 
CCc1cc(CC)n2nc(SCc3nc4c(c(=O)[nH]c(=O)n4Cc4ccc(Cl)cc4)n3CC)nc2n1 [Compound 26a] | 7.9 µM | 43.5 ± 7.1 µM | 2.1 ± 0.5 µM | 31.9 ± 0.5 µM | 9.5 ± 0.5 µM | > 100 µM | 42.5 ± 3.9 µM |  |  |  | 56.4 ± 7.9 µM |  |  |  |  |  |  | 
Cc1sc2c(c1C)C(c1ccc(Cl)cc1)=N[C@@H](CC(=O)Nc1ccc(O)cc1)c1nnc(C)n1-2 [OTX015, (6S)-4-(4-chlorophenyl)-N-(4-hydroxyphenyl)-2,3,9-trimethyl-6H-thieno[3,2-f][1,2,4]triazolo[4,3-a][1,4]diazepine-6-acetamide] |  |  |  |  |  |  |  |  |  |  |  |  |  |  |  |  | induced remissions, including complete remission in two patients with refractory disease | 
COc1cc(OC)c2c(=O)[nH]c(-c3cc(C)c(OCCO)c(C)c3)nc2c1 [RVX-208, 2-[4-(2-hydroxyethoxy)-3,5-dimethylphenyl]-5,7-dimethoxy-4(3H)-quinazolinone] |  |  |  |  |  |  |  |  |  |  |  |  |  |  |  |  |  | binds preferentially to the BD2 domain of BRD2 and BRD3

Reference: patent US11225481B2 (Centre national de la recherche scientifique, priority 2015, dated 2022)
